Experimental data: patent US9204644B2, “Nanoparticles compositions containing polymers and anthranilic acid diamide insecticides for propagule coating” (priority 2011, dated 2015)

Tested on: 2nd instar larva of Spodoptera frugiperda
Assay: Laboratory test of larval mortality on maize leaves
Assay type: in vivo

## CNC(=O)c1cc(Cl)cc(C)c1NC(=O)c1cc(Br)nn1-c1ncccc1Cl [Compound 2, 3-bromo-N-[4-chloro-2-methyl-6-[(methylamino)carbonyl]phenyl]-1-(3-chloro-2-pyridinyl)-1H-pyrazole-5-carboxamide]
  concentration in leaf tissue needed to achieve 100% mortality within 72 h: 0.037 micrograms per g of tissue
  concentration in leaf tissue resulting in 50% mortality within 72 h: 0.033 micrograms per g of leaf tissu
